# Laboratory results as given in PubChem BioAssay (NCI).
#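 Following 48 hours of exposure in 96-well plates, responses at five concentrations were used to interpolate endpoints linearly. TGI denotes the concentration required for complete inhibition of growth.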
# Experiments:
# Assay in all cases: NCI-60 cell line screen, 48 h
# [1] = tested on: NCI/ADR-RES ovarian
# [2] = tested on: MDA-N
# [3] = tested on: UACC-257 melanoma
# [4] = tested on: SK-MEL-2 melanoma
# [5] = tested on: HT29 colon
# [6] = tested on: DU-145 prostate
# [7] = tested on: T-47D breast
# [8] = tested on: SK-MEL-5 melanoma
# [9] = tested on: KM12 colon
# [10] = tested on: RXF 393 renal
# [11] = tested on: IGROV1 ovarian
# [12] = tested on: M14 melanoma
# [13] = tested on: OVCAR-5 ovarian
# [14] = tested on: HOP-92 NSCLC
# [15] = tested on: TK-10 renal
# [16] = tested on: NCI-H226 lung
# [17] = tested on: U251 CNS
# [18] = tested on: SK-OV-3 ovarian
# [19] = tested on: SF-268 CNS
# [20] = tested on: PC-3 prostate
# [21] = tested on: SF-295 CNS
# [22] = tested on: CAKI-1 renal
# [23] = tested on: OVCAR-8 ovarian
# [24] = tested on: MALME-3M melanoma
# [25] = tested on: MOLT-4 leukemia
# [26] = tested on: NCI-H460 lung
# [27] = tested on: 786-0 renal
# [28] = tested on: SK-MEL-28 melanoma
# [29] = tested on: MDA-MB-231 breast
# [30] = tested on: BT-549 breast
# [31] = tested on: NCI-H522 lung
# [32] = tested on: MDA-MB-435
# [33] = tested on: HS 578T breast
# [34] = tested on: OVCAR-3 ovarian
# [35] = tested on: COLO 205 colon
# [36] = tested on: HCT-116 colon
# [37] = tested on: OVCAR-4 ovarian
# [38] = tested on: SNB-19 CNS
# [39] = tested on: A549 NSCLC
# [40] = tested on: CCRF-CEM leukemia
# [41] = tested on: HOP-62 NSCLC
# [42] = tested on: UACC-62 melanoma
# [43] = tested on: EKVX NSCLC
# [44] = tested on: ACHN renal
# [45] = tested on: K-562 leukemia
# [46] = tested on: LOX IMVI melanoma
# [47] = tested on: NCI-H23 lung
# [48] = tested on: SN12C renal
# [49] = tested on: SW-620 colon
# [50] = tested on: A498 renal
# [51] = tested on: HCT-15 colon
# [52] = tested on: HL-60(TB) leukemia
# [53] = tested on: UO-31 renal
# [54] = tested on: MCF7 breast
# [55] = tested on: HCC-2998 colon
# [56] = tested on: SR leukemia
# [57] = tested on: RPMI-8226 leukemia
# [58] = tested on: SF-539 CNS
# [59] = tested on: SNB-75 CNS
compound,measurement,setting,value
C#C[C@]1(O)CC[C@H]2[C@@H]3CCC4=CC(=NCCOC(=O)c5cccc6c(=O)c7ccccc7[nH]c56)CC[C@@H]4[C@H]3CC[C@@]21C,TGI,[1],> 100 µM
same,TGI,[2],> 100 µM
same,TGI,[3],> 100 µM
same,TGI,[4],95.6 µM
same,TGI,[5],> 100 µM
same,TGI,[6],> 100 µM
same,TGI,[7],78.1 µM
same,TGI,[8],> 100 µM
same,TGI,[9],> 100 µM
same,TGI,[10],43.2 µM
same,TGI,[11],> 100 µM
same,TGI,[12],> 100 µM
same,TGI,[13],> 100 µM
same,TGI,[14],89.6 µM
same,TGI,[15],> 100 µM
same,TGI,[16],> 100 µM
same,TGI,[17],51.4 µM
same,TGI,[18],> 100 µM
same,TGI,[19],> 100 µM
same,TGI,[20],55 µM
same,TGI,[21],> 100 µM
same,TGI,[22],> 100 µM
same,TGI,[23],48.9 µM
same,TGI,[24],91.1 µM
same,TGI,[25],> 100 µM
same,TGI,[26],> 100 µM
same,TGI,[27],> 100 µM
same,TGI,[28],> 100 µM
same,TGI,[29],72.6 µM
same,TGI,[30],> 100 µM
same,TGI,[31],> 100 µM
same,TGI,[32],> 100 µM
same,TGI,[33],> 100 µM
same,TGI,[34],> 100 µM
same,TGI,[35],> 100 µM
same,TGI,[36],> 100 µM
same,TGI,[37],> 100 µM
same,TGI,[38],> 100 µM
same,TGI,[39],> 100 µM
same,TGI,[40],> 100 µM
same,TGI,[41],> 100 µM
same,TGI,[42],> 100 µM
same,TGI,[43],> 100 µM
same,TGI,[44],> 100 µM
same,TGI,[45],> 100 µM
same,TGI,[46],84 µM
same,TGI,[47],> 100 µM
same,TGI,[48],> 100 µM
same,TGI,[49],> 100 µM
same,TGI,[50],> 100 µM
same,TGI,[51],> 100 µM
same,TGI,[52],> 100 µM
same,TGI,[53],> 100 µM
same,TGI,[54],> 100 µM
C#C[C@]1(O)CC[C@H]2[C@@H]3CCC4=CC(=NCCOC(=O)c5cccc6cc7ccccc7nc56)CC[C@@H]4[C@H]3CC[C@@]21C,TGI,[1],81.3 µM
same,TGI,[2],> 100 µM
same,TGI,[3],> 100 µM
same,TGI,[4],53.9 µM
same,TGI,[5],> 100 µM
same,TGI,[6],> 100 µM
same,TGI,[7],75.9 µM
same,TGI,[8],> 100 µM
same,TGI,[9],97.2 µM
same,TGI,[10],28.3 µM
same,TGI,[11],30.8 µM
same,TGI,[12],61.3 µM
same,TGI,[13],> 100 µM
same,TGI,[14],48.6 µM
same,TGI,[15],> 100 µM
same,TGI,[16],> 100 µM
same,TGI,[17],25.2 µM
same,TGI,[18],> 100 µM
same,TGI,[19],72.3 µM
same,TGI,[20],34.9 µM
same,TGI,[21],67.6 µM
same,TGI,[22],> 100 µM
same,TGI,[23],21.9 µM
same,TGI,[24],74.4 µM
same,TGI,[25],> 100 µM
same,TGI,[26],35.8 µM
same,TGI,[27],> 100 µM
same,TGI,[28],> 100 µM
same,TGI,[29],44.8 µM
same,TGI,[30],74.2 µM
same,TGI,[31],45.6 µM
same,TGI,[32],> 100 µM
same,TGI,[33],63.8 µM
same,TGI,[34],> 100 µM
same,TGI,[35],> 100 µM
same,TGI,[36],> 100 µM
same,TGI,[37],> 100 µM
same,TGI,[38],> 100 µM
same,TGI,[39],> 100 µM
same,TGI,[40],> 100 µM
same,TGI,[41],> 100 µM
same,TGI,[42],96.1 µM
same,TGI,[43],> 100 µM
same,TGI,[44],> 100 µM
same,TGI,[45],> 100 µM
same,TGI,[46],24.8 µM
same,TGI,[47],62.5 µM
same,TGI,[48],> 100 µM
same,TGI,[49],> 100 µM
same,TGI,[50],> 100 µM
same,TGI,[51],43.1 µM
same,TGI,[52],> 100 µM
same,TGI,[53],> 100 µM
same,TGI,[54],69.4 µM
O=C1CC(=O)NC(=NN2C(=O)CSC2c2ccccc2)N1 (stereo not drawn),TGI,[1],> 100 µM
same,TGI,[2],> 100 µM
same,TGI,[3],> 100 µM
same,TGI,[4],> 100 µM
same,TGI,[5],> 100 µM
same,TGI,[6],> 100 µM
same,TGI,[7],> 100 µM
same,TGI,[8],> 100 µM
same,TGI,[9],> 100 µM
same,TGI,[10],> 100 µM
same,TGI,[11],> 100 µM
same,TGI,[12],> 100 µM
same,TGI,[13],> 100 µM
same,TGI,[14],> 100 µM
same,TGI,[15],> 100 µM
same,TGI,[16],> 100 µM
same,TGI,[17],> 100 µM
same,TGI,[18],> 100 µM
same,TGI,[19],> 100 µM
same,TGI,[20],> 100 µM
same,TGI,[21],> 100 µM
same,TGI,[22],> 100 µM
same,TGI,[55],> 100 µM
same,TGI,[23],> 100 µM
same,TGI,[56],> 100 µM
same,TGI,[24],> 100 µM
same,TGI,[25],> 100 µM
same,TGI,[26],> 100 µM
same,TGI,[27],> 100 µM
same,TGI,[28],> 100 µM
same,TGI,[29],> 100 µM
same,TGI,[30],> 100 µM
same,TGI,[31],> 100 µM
same,TGI,[57],> 100 µM
same,TGI,[32],> 100 µM
same,TGI,[33],> 100 µM
same,TGI,[34],> 100 µM
same,TGI,[35],> 100 µM
same,TGI,[36],> 100 µM
same,TGI,[37],> 100 µM
same,TGI,[39],> 100 µM
same,TGI,[40],> 100 µM
same,TGI,[41],> 100 µM
same,TGI,[42],> 100 µM
same,TGI,[44],> 100 µM
same,TGI,[58],> 100 µM
same,TGI,[45],> 100 µM
same,TGI,[47],> 100 µM
same,TGI,[48],> 100 µM
same,TGI,[59],> 100 µM
same,TGI,[49],> 100 µM
same,TGI,[50],> 100 µM
same,TGI,[51],> 100 µM
same,TGI,[53],> 100 µM
same,TGI,[54],> 100 µM
